Source: US20070275382A1, “Biomarkers for the Efficacy of Somatostatin Analogue Treatment” (priority 2003, published 2007)
*1 amine or outer side, *2 acyl side, *3 side chain or, on linkers, in order; H or OH if unused. Where a SMILES comes first, the peptide text is derived from it. Side-chain parts run from the residue outwards. [ ]: non-standard residue; d: D form. The star is where a group is joined. Ethylenediamine = C(CN[*:2])N[*:1]; Hyp = O=C(O)[CH]1C[CH](O)CN1; Phg = N[CH](C(=O)O)c1ccccc1; CO = O=C([*:1])[*:2]; Bn = c1ccc(C*)cc1

Test system: Thyroid
Test: Microarray gene expression profiling (HG-U95A), thyroid
Format: in vivo, cynomolgus monkeys
Experimental: Origin of tissue and processing. Male and female cynomolgus monkeys received subcutaneously pasireotide (100 μg/animal/day) or the vehicle for 14 days. On day 15, all animals were sacrificed and tissues for RNA extraction were immediately snap-frozen and kept at −80° C. until processing.
RNA expression profiling was conducted by means of the HG-U95A gene expression probe array (Affymetrix; Santa Clara, Calif. USA), containing more than 12,600 probe sets interrogating primarily full-length human genes and also some control probe sets. The experiment was conducted according to the recommendations of the manufacturer. Briefly, total RNA was obtained by acid guanidinium thiocyanate-phenol-chloroform extraction (Trizol®, Invitrogen Life Technologies, San Diego, Calif. USA) from each frozen tissue section. The total RNA was then purified on an affinity resin (Rneasy®, Qiagen) and quantified. Double stranded cDNA was synthesized with a starting amount of approximately 5 μg full-length total RNA using the Superscript® Choice System (Invitrogen Life Technologies, Carlsbad, Calif. USA) in the presence of a T7-(dT)24 DNA oligonucleotide primer. Following synthesis, the cDNA was purified by phenol/chloroform/isoamyl alcohol extraction and ethanol precipitation. The purified cDNA was then transcribed in vitro using the BioArray® High Yield RNA Transcript Labeling Kit (ENZO, Farmingdale, N.Y. USA) in the presence of biotinylated ribonucleotides form biotin labelled cRNA. The labelled cRNA was then purified on an affinity resin (Rneasy®, Qiagen), quantified and fragmented. An amount of approximately 10 μg labelled cRNA was hybridized for 16 hours at 45° C. to an expression probe array. The array was then washed and stained twice with streptavidin-phycoerythrin (Molecular Probes,) using the GeneChip® Fluidics Workstation 400 (Affymetrix, Santa Clara, Calif. USA). The array was then scanned twice using a confocal laser scanner (GeneArray® Scanner, Agilent, Palo Alto, Calif. USA) resulting in one scanned image. This resulting “.dat-file” was processed using the MAS4 program (Affymetrix) into a “.cel-file”. The “.cel file” was captured and loaded into the Affymetrix GeneChip® Laboratory Information Management System (LIMS). The LIMS database is connected to a UNIX Sun Solaris server through a network filing system that allows for the average intensities for all probes cells (CEL file) to be downloaded into an Oracle database (NPGN). Raw data was converted to expression levels using a “target intensity” of 150. The data were evaluated for quality control and loaded in the GeneSpring® software 4.2.4 (Silicon Genetics, Calif. USA) for analysis.
On the human Affymetrix HGU95Av2 chip, probe sets for individual genes contain 20 oligonucleotide pairs, each composed of a “perfect match” 25-mer and a “mismatch” 25-mer differing from the “perfect” match oligonucleotide at a single base. After probe labelling, hybridization, and laser scanning, the expression level was estimated by averaging the differences in signal intensity measured by oligonucleotide pairs of a given probe (AvgDiff value). The fold changes and directions were calculated for selected genes, from the differences of the AvgDiff values between controls and treated.
To identify genes that were impacted by pasireotide, the dataset was initially filtered to exclude in a first wave of analysis, genes whose values were systematically in the lower expression ranges where the experimental noise is high (at least 80 in a number of experiments corresponding to the smallest number of replicas of any experimental point). In a second round of selection a threshold p-value of 0.05 (based on a t-test) identified differences between treated and control based on a two component error model (Global Error Model) and, whenever possible, with a stepdown correction for multi-hypothesis testing (Benjamini and Hochberg false discovery rate). […]

[1] = ↑ increase, treated vs controls
[2] = ↓ decrease, treated vs controls

Compound: NCCCCC1NC(=O)C(Cc2c[nH]c3ccccc23)NC(=O)C(c2ccccc2)NC(=O)C2CC(OC(=O)NCCN)CN2C(=O)C(Cc2ccccc2)NC(=O)C(Cc2ccc(OCc3ccccc3)cc2)NC1=O (stereo not drawn) [Pasireotide, cyclo[4-(NH2—C2H4—NH—CO—O)Pro-Phg-DTrp-Lys-Tyr(4-Bzl)-Phe]] (cyclo(F[Hyp]([CO-Ethylenediamine])[Phg]WKY(Bn)); configuration not given here)
- IGF-1 expression level, AvgDiff (range) (0.1 mg/animal/14day): 58 (20 to 114)
- Endothelial differentiation-related factor 1 RNA expression change (direction only, treated vs controls): related factor 1 ↑
- CD2 antigen (cytoplasmic tail)-binding protein 2 RNA expression fold change [1]: ↑ x3.5
- Cadherin 13, H-cadherin (heart) RNA expression fold change [1]: ↑ x2
- Cannabinoid receptor 2 (macrophage) RNA expression fold change [1]: ↑ x3
- GABA (B) receptor 1, isoform a precursor RNA expression fold change [1]: ↑ x2.5
- IFNα-inducible protein 27 RNA expression fold change [1]: protein 27 ↑ x3
- IFNγ-inducible protein 30 RNA expression fold change [1]: ↑ x3.5
- PDGF-associated Protein RNA expression fold change [1]: Protein ↑ x2
- PDGFR β RNA expression fold change [1]: ↑ x2
- Phosphatidyl ethanolamine N-methyl-transferase RNA expression fold change [1]: ↑ x2
- Pro-platelet basic protein (includes platelet basic protein, β-thromboglobulin, connective tissue-activating peptide III, neu) 2 RNA expression fold change [1]: 2 ↑ x3.5
- RANTES RNA expression fold change [1]: ↑ x10.5
- Solute carrier family 21 (PG transporter), member 2 RNA expression fold change [1]: member 2 ↑ x2
- TNF (ligand) superfamily, member 10 RNA expression fold change [1]: ↑ x2
- Thrombospondin 2 RNA expression fold change [1]: spondin 2 ↑ x2
- VWF precursor RNA expression fold change [1]: precursor ↑ x2
- ATPase, Ca++ transporting, cardiac muscle, fast twitch 1 RNA expression fold change [2]: ↓ x4.5
- Adenylate cyclase activating polypeptide precursor RNA expression fold change [2]: ↓ x1.5
- Adrenergic, α-2C-, receptor RNA expression fold change [2]: ↓ x2.5
- Bcl-2 binding component 3 RNA expression fold change [2]: ↓ x2
- Brain cannabinoid receptor 1 RNA expression fold change [2]: ↓ x2
- CD2 antigen (p50), sheep red blood cell receptor RNA expression fold change [2]: ↓ x7.5
- COL1A1 and PDGFB fusion transcript RNA expression fold change [2]: transcript ↓ x6
- Calcium/calmodulin dependent protein kinase 1 RNA expression fold change [2]: ↓ x2
- Calcium/calmodulin-dependent PK IV RNA expression fold change [2]: IV ↓ x7.5
- Calmodulin-dependent PK IV (CaM-kinase IV) RNA expression fold change [2]: IV) ↓ x7.5
- Cdc-like 5 (cholinesterase-related cell division controller) RNA expression fold change [2]: ↓ x2
- Cdk 5, regulatory subunit 1 (p35) RNA expression fold change [2]: ↓ x5
- Chemokine (C-X-C motif), receptor 4 (fusin) RNA expression fold change [2]: (fusin) ↓ x3
- Cholecystokinin B receptor RNA expression fold change [2]: B receptor ↓ x3
- Cyclin B2 RNA expression fold change [2]: ↓ x2.5
- DAG 1 kinase, α (80 kD) RNA expression fold change [2]: ↓ x4
- EGF-like module containing, mucin-like, hormone receptor-like sequence 1 RNA expression fold change [2]: ↓ x5
- FKBP-associated protein RNA expression fold change [2]: protein ↓ x2.5
- Flt3 ligand RNA expression fold change [2]: Flt3 ligand ↓ x4.5
- Fms-related tyrosine kinase 1(VEGF/vascular permeability factor receptor) RNA expression fold change [2]: ↓ x2
- GABA (A) receptor, γ2 precursor RNA expression fold change [2]: ↓ x1.5
- Gastric inhibitory polypeptide 1 receptor RNA expression fold change [2]: receptor ↓ x2
- Glutamate receptor, metabotropic 2 precursor RNA expression fold change [2]: precursor ↓ 3.5
- Growth arrest-specific 1 RNA expression fold change [2]: ↓ x2.5
- IFNγ responsive transcript RNA expression fold change [2]: transcript ↓ x1.5
- IGF-1 RNA expression fold change [2]: IGF-1 ↓ x1.5
- IL2-inducible T-cell kinase RNA expression fold change [2]: cell kinase ↓ x12
- IL9 receptor RNA expression fold change [2]: ↓ x2
- IP3 receptor type 3 RNA expression fold change [2]: ↓ x1.5
- K+ voltage-gated channel, shaker-related subfamily, member 3 RNA expression fold change [2]: ↓ x4.5
- LTB4 receptor (chemokine receptor-like 1) RNA expression fold change [2]: ↓ x1.5
- Lymphocyte specific protein tyrosine kinase RNA expression fold change [2]: ↓ x4
- P56lck RNA expression fold change [2]: P56lck ↓ x18
- PDGFR α RNA expression fold change [2]: ↓ x3
- PIP 5-phosphatase type IV RNA expression fold change [2]: x3
- PLC, γ 1 (formerly subtype 148) RNA expression fold change [2]: 148) ↓ x2
- RAG1 RNA expression fold change [2]: RAG1 ↓ x18
- RAG2 RNA expression fold change [2]: RAG2 ↓ x5
- SH2 domain protein 1A, Duncan's disease (lymphoproliferative syndrome) RNA expression fold change [2]: ↓ x7.5
- Signalling lymphocytic activation molecule RNA expression fold change [2]: molecule ↓ x4.5
- TCR ζ chain precursor RNA expression fold change [2]: precursor ↓ x5.5
- TSHR RNA expression fold change [2]: TSHR ↓ x2
- Transcription factor 7 (T-cell specific, HMG-box) RNA expression fold change [2]: box) ↓ x16.5
- c-AMP responsive element binding protein 1 RNA expression fold change [2]: protein 1 ↓ x2
